In patent US11964990B2, “1,3,4,7-tetrahydro-2H-pyrrolo[3′,2′:5,6]pyrido[2,3-b][1,4]oxazepine bcl-2 inhibitors” (AbbVie Inc., priority 2022, dated 2024):
pEC50: −log10 of the molar value.

Columns and labels:
RS4;11 cells = assay: Cell viability assay (CellTiter-Glo) in RS4;11 cell line; assay type: cell-based; conditions: 24 hours, 10% Human Serum, 50% decrease in cell viability
Description: (§1) The acute lymphoblastic leukemia (ALL) human cell line RS4;11 (ATCC, Manassas VA) was used as the primary human cell line to assess the cellular activity of compound of the present Examples in vitro and their efficacy in vivo. BH3 profiling, a mitochondrial assay that classifies blocks in the intrinsic apoptotic pathway, has shown that RS4;11 cells were highly dependent on Bcl-2 protein for survival and were sensitive to a Bcl-2 inhibitor (Blood. 2008; 111(4):2300-2309). […] The acute lymphoblastic leukemia cell line Molt-4, which is derived from immature T-lymphoid cells (T-ALL), was used as a counter screen assay.
(§2) Frozen RS4;11 or Molt-4 cells (ATCC, Manassas, VA, USA) were thawed overnight in RPMI 1640 media (Thermo Fisher Scientific, Waltham, MA, USA) supplemented with 1% penicillin/streptomycin (Thermo Fisher Scientific, Waltham, MA, USA), and 10% Human Serum (Sigma, St. Louis, MO, USA). 3000 Cells (0.1×10^6/mL) were seeded in each well of 384-well plate and were treated for 24 hours in a humidified chamber with 5% CO2. Cell viability was determined by CellTiter-Glo as described by the manufacturer's instructions (Promega Corporation, Madison, WI, USA). Responses were determined as a percentage of the control treated cells and the effective concentration (EC50) to induce a 50% decrease in cell viability were determined from sigmoidal dose-response curves using Dotmatics (Dotmatics Software Company, Bishops Stortford, Hertfordshire, England).

Molt-4 cells = assay: Cell viability counter screen assay (CellTiter-Glo) in Molt-4 cells; assay type: cell-based; conditions: 24 hours, 10% Human Serum, 50% decrease in cell viability
Description: as §1, §2

SMILES	pEC50 (RS4;11 cells)	pEC50 (Molt-4 cells)
CC1(C)CC(c2ccc(Cl)cc2)=C2CN3CCN(c4ccc(C(=O)NS(=O)(=O)c5ccc(NC[C@@H]6CC[C@@H](O)CO6)c([N+](=O)[O-])c5)c(N5CCCOc6nc7[nH]ccc7cc65)c4)C[C@H]3COCCCO[C@@H]2C1 [Example 27, 4-((4aS,10aR)-14-(4-chlorophenyl)-12,12-dimethyl-1,2,4a,5,8,9,10a,11,13,15-decahydro-7H,12H-benzo[f]pyrazino[2,1-c][1,8]dioxa[4]azacycloundecin-3(4H)-yl)-2-(3,4-dihydro-2H-pyrrolo[3′,2′:5,6]pyrido[2,3-h][1,4]oxazepin-1(7H)-yl)-N-((4-((((2S,5R)-5-hydroxytetrahydro-2H-pyran-2-yl)methyl)amino)-3-nitrophenyl)sulfonyl)benzamide]	9.48	6.27
CC1(C)CC(c2ccc(Cl)cc2)=C2CN3CCN(c4ccc(C(=O)NS(=O)(=O)c5ccc(NC[C@H]6CC[C@H](N7CCOCC7)CC6)c([N+](=O)[O-])c5)c(N5CCCOc6nc7[nH]ccc7cc65)c4)C[C@H]3COCCCO[C@@H]2C1 [Example 28, 4-((4aS,10aR)-14-(4-chlorophenyl)-12,12-dimethyl-1,2,4a,5,8,9,10a,11,13,15-decahydro-7H,12H-benzo[f]pyrazino[2,1-c][1,8]dioxa[4]azacycloundecin-3(4H)-yl)-2-(3,4-dihydro-2H-pyrrolo[3′,2′:5,6]pyrido[2,3-h][1,4]oxazepin-1(7H)-yl)-N-((4-((((1r,4r)-4-morpholinocyclohexyl)methyl)amino)-3-nitrophenyl)sulfonyl)benzamide]	9.06	6.56
COC1CO[C@H](CNc2ccc(S(=O)(=O)NC(=O)c3ccc(N4CCN5CC6=C(c7ccc(Cl)cc7)CC(C)(C)C[C@H]6OCCCOC[C@@H]5C4)cc3N3CCCOc4nc5[nH]ccc5cc43)cc2[N+](=O)[O-])C1 (stereo partly drawn) [Example 29, 4-((4aS,10aR)-14-(4-chlorophenyl)-12,12-dimethyl-1,2,4a,5,8,9,10a,11,13,15-decahydro-7H,12H-benzo[f]pyrazino[2,1-c][1,8]dioxa[4]azacycloundecin-3(4H)-yl)-2-(3,4-dihydro-2H-pyrrolo[3′,2′:5,6]pyrido[2,3-b][1,4]oxazepin-1(7H)-yl)-N-((4-((((2S)-4-methoxytetrahydrofuran-2-yl)methyl)amino)-3-nitrophenyl)sulfonyl)benzamide]	8.71	5.72
CO[C@H]1C[C@H](Nc2ccc(S(=O)(=O)NC(=O)c3ccc(N4CCN5CC6=C(c7ccc(Cl)cc7)CC(C)(C)C[C@H]6OCCCOC[C@@H]5C4)cc3N3CCCOc4nc5[nH]ccc5cc43)cc2[N+](=O)[O-])C1 [Example 30, 4-((4aS,10aR)-14-(4-chlorophenyl)-12,12-dimethyl-1,2,4a,5,8,9,10a,11,13,15-decahydro-7H,12H-benzo[f]pyrazino[2,1-c][1,8]dioxa[4]azacycloundecin-3(4H)-yl)-2-(3,4-dihydro-2H-pyrrolo[3′,2′:5,6]pyrido[2,3-b][1,4]oxazepin-1(7H)-yl)-N-((4-(((1r,3r)-3-methoxycyclobutyl)amino)-3-nitrophenyl)sulfonyl)benzamide]	8.39	< 5.00
CO[C@H]1CC[C@H](COc2ccc(S(=O)(=O)NC(=O)c3ccc(N4CCN5CC6=C(c7ccc(Cl)cc7)CC(C)(C)C[C@H]6OCCCOC[C@@H]5C4)cc3N3CCCOc4nc5[nH]ccc5cc43)cc2[N+](=O)[O-])OC1 [Example 33, 4-((4aS,10aR)-14-(4-chlorophenyl)-12,12-dimethyl-1,2,4a,5,8,9,10a,11,13,15-decahydro-7H,12H-benzo[f]pyrazino[2,1-c][1,8]dioxa[4]azacycloundecin-3(4H)-yl)-2-(3,4-dihydro-2H-pyrrolo[3′,2′:5,6]pyrido[2,3-b][1,4]oxazepin-1(7H)-yl)-N-((4-(((2R,5S)-5-methoxytetrahydro-2H-pyran-2-yl)methoxy)-3-nitrophenyl)sulfonyl)benzamide]	8.46	5.22

More lines, in order of rising pEC50 (RS4;11 cells), values ahead:

pEC50 (RS4;11 cells)	SMILES	pEC50 (Molt-4 cells)
7.24	CO[C@H]1CC[C@H](CNc2ccc(S(=O)(=O)NC(=O)c3ccc(N4CCN5CC6=C(c7ccc(Cl)cc7)CC(C)(C)C[C@H]6OCCCOC[C@@H]5C4)cc3N3CCCOc4nc5[nH]ccc5cc43)cc2Cl)OC1 [Example 34, N-((3-chloro-4-((((2R,5S)-5-methoxytetrahydro-2H-pyran-2-yl)methyl)amino)phenyl)sulfonyl)-4-((4aS,10aR)-14-(4-chlorophenyl)-12,12-dimethyl-1,2,4a,5,8,9,10a,11,13,15-decahydro-7H,12H-benzo[f]pyrazino[2,1-c][1,8]dioxa[4]azacycloundecin-3(4H)-yl)-2-(3,4-dihydro-2H-pyrrolo[3′,2′:5,6]pyrido[2,3-b][1,4]oxazepin-1(7H)-yl)benzamide]	< 5.00
8.49	CN1CCC(Nc2ccc(S(=O)(=O)NC(=O)c3ccc(N4CCN5CC6=C(c7ccc(Cl)cc7)CC(C)(C)C[C@H]6OCCCOC[C@@H]5C4)cc3N3CCCOc4nc5[nH]ccc5cc43)cc2[N+](=O)[O-])CC1 [Example 31, 4-((4aS,10aR)-14-(4-chlorophenyl)-12,12-dimethyl-1,2,4a,5,8,9,10a,11,13,15-decahydro-7H,12H-benzo[f]pyrazino[2,1-c][1,8]dioxa[4]azacycloundecin-3(4H)-yl)-2-(3,4-dihydro-2H-pyrrolo[3′,2′:5,6]pyrido[2,3-b][1,4]oxazepin-1(7H)-yl)-N-((4-((1-methylpiperidin-4-yl)amino)-3-nitrophenyl)sulfonyl)benzamide]	5.91
8.78	CC1(C)CC(c2ccc(Cl)cc2)=C2CN3CCN(c4ccc(C(=O)NS(=O)(=O)c5ccc(NC[C@H]6CC[C@](C)(O)CC6)c([N+](=O)[O-])c5)c(N5CCCOc6nc7[nH]ccc7cc65)c4)C[C@H]3COCCCO[C@@H]2C1 [Example 32, 4-((4aS,10aR)-14-(4-chlorophenyl)-12,12-dimethyl-1,2,4a,5,8,9,10a,11,13,15-decahydro-7H,12H-benzo[f]pyrazino[2,1-c][1,8]dioxa[4]azacycloundecin-3(4H)-yl)-2-(3,4-dihydro-2H-pyrrolo[3′,2′:5,6]pyrido[2,3-b][1,4]oxazepin-1(7H)-yl)-N-((4-((((1r,4r)-4-hydroxy-4-methylcyclohexyl)methyl)amino)-3-nitrophenyl)sulfonyl)benzamide]	5.02
8.83	COCCO[C@H]1CC[C@H](CNc2ccc(S(=O)(=O)NC(=O)c3ccc(N4CCN5CC6=C(c7ccc(Cl)cc7)CC(C)(C)C[C@H]6OCCCOC[C@@H]5C4)cc3N3CCCOc4nc5[nH]ccc5cc43)cc2[N+](=O)[O-])OC1 [Example 35, 4-((4aS,10aR)-14-(4-chlorophenyl)-12,12-dimethyl-1,2,4a,5,8,9,10a,11,13,15-decahydro-7H,12H-benzo[f]pyrazino[2,1-c][1,8]dioxa[4]azacycloundecin-3(4H)-yl)-2-(3,4-dihydro-2H-pyrrolo[3′,2′:5,6]pyrido[2,3-b][1,4]oxazepin-1(7H)-yl)-N-((4-((((2R,5S)-5-(2-methoxyethoxy)tetrahydro-2H-pyran-2-yl)methyl)amino)-3-nitrophenyl)sulfonyl)benzamide]	5.76
